Calls of active or inactive are those of the source. How the calls were made is not given here.
System: rodent carcinogenicity bioassays, tumor incidence
Assay: CCRIS carcinogenicity studies
Procedure, shortened: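 NCI-built, expert-reviewed records of carcinogenicity and related test outcomes (mutagenicity, tumor promotion/inhibition) compiled from published and report sources, historical span 1985-2011, not updated.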

N#Cc1nn(-c2c(Cl)cc(C(F)(F)F)cc2Cl)c(N)c1S(=O)C(F)(F)F (stereo not drawn)
carcinogen call (Species: Mouse, Strain/Sex: CD-1/Female (32/Group), Route: Oral, Dose: 0, 0.1, 0.5, 10, 30 ppm of 95.4% fipronil in diet for 78 wks, study duration 78 wks, Dose: 0, 0.1, 0.5, 10, 30 ppm of 95.4% fipronil in diet for 78 wks, study duration 78 wks): inactive; negative | carcinogen call (Species: Mouse, Strain/Sex: CD-1/Male (32/Group), Route: Oral, Dose: 0, 0.1, 0.5, 10, 30 ppm of 95.4% fipronil in diet for 78 wks, study duration 78 wks, Dose: 0, 0.1, 0.5, 10, 30 ppm of 95.4% fipronil in diet for 78 wks, study duration 78 wks, Tumor Site: Type of Lesion: Liver: malignant hepatocellular tumors at highest dose): active; positive | carcinogen call (Species: Rat, Strain/Sex: CD/Female (50/Group), Route: Oral, Dose: 0, 0.5, 1.5, 30, 300 ppm of 95.4% fipronil in diet for 89-91 wks, study duration 104 wks, Dose: 0, 0.5, 1.5, 30, 300 ppm of 95.4% fipronil in diet for 89-91 wks, study duration 104 wks, Tumor Site: Type of Lesion: Thyroid: follicular cell adenoma and carcinoma at highest dose): active; positive | carcinogen call (Species: Rat, Strain/Sex: CD/Male (50/Group), Route: Oral, Dose: 0, 0.5, 1.5, 30, 300 ppm of 95.4% fipronil in diet for 89-91 wks, study duration 104 wks, Dose: 0, 0.5, 1.5, 30, 300 ppm of 95.4% fipronil in diet for 89-91 wks, study duration 104 wks, Tumor Site: Type of Lesion: Thyroid: follicular cell adenoma and carcinoma at highest dose): active; positive

c1ccc2c(c1)ccc1cccnc12
carcinogen call (Species: RAT, Strain/Sex: SPRAGUE-DAWLEY/FEMALE, Route: SUBCUTANEOUS, Dose: 0, 200 UMOL/KG IN DMSO INTO SUPRASCAPULAR AREA ON DAY 1 OF LIFE FOLLOWED BY 0, 100 UMOL 1/WK AT WK 2-7 THEN O, 200 UMOL/, Dose: 0, 200 UMOL/KG IN DMSO INTO SUPRASCAPULAR AREA ON DAY 1 OF LIFE FOLLOWED BY 0, 100 UMOL 1/WK AT WK 2-7 THEN O, 200 UMOL/): inactive; negative | carcinogen call (Species: RAT, Strain/Sex: SPRAGUE-DAWLEY/MALE, Route: SUBCUTANEOUS, Dose: 0, 200 UMOL/KG IN DMSO INTO SUPRASCAPULAR AREA ON DAY 1 OF LIFE FOLLOWED BY 0, 100 UMOL 1/WK AT WK 2-7 THEN O, 200 UMOL/, Dose: 0, 200 UMOL/KG IN DMSO INTO SUPRASCAPULAR AREA ON DAY 1 OF LIFE FOLLOWED BY 0, 100 UMOL 1/WK AT WK 2-7 THEN O, 200 UMOL/): inactive; negative

OCCN(CCO)C(=S)S
carcinogen call (Species: MOUSE, Strain/Sex: B6AKF1/MALE, Route: GAVAGE/ORAL, Dose: 464 MG/KG FROM D 7-28 OF LIFE THEN 1112 MG/KG IN DIET, Tumor Site: Type of Lesion: LIVER: HEPATOMA): active; positive | carcinogen call (Species: MOUSE, Strain/Sex: B6C3F1/MALE,FEMALE, Route: GAVAGE/ORAL, Dose: 464 MG/KG FROM D 7-28 OF LIFE THEN 1112 MG/KG IN DIET, Tumor Site: Type of Lesion: LIVER: HEPATOMA): active; positive | carcinogen call (Species: RAT, Strain/Sex: STRAIN-CD/MALE,FEMALE, Route: ORAL, Dose: 500, 1000 PPM IN DIET FOR 78 WK): inactive; negative

O=C1C=C[C@H]2CO[C@@H]1O2
carcinogen call (Species: MOUSE, Strain/Sex: CD-1/FEMALE, Route: DERMAL, Dose: 0, 2.5 UMOL/0.1 DMSO 2/WK FOR 5 WK FOLLOWED 1 WK LATER BY 0.1 ML ACETONE 2/WK FOR 47 WK (STUDY DURATION: 52 WK)): inactive; negative

O=[N+]([O-])NC1=NCCN1Cc1ccc(Cl)nc1
carcinogen call (Species: Mouse, Strain/Sex: B6C3F1/Female (60/Group), Route: Oral, Dose: 0, 100, 330, 1000 ppm and 0, 2000 ppm (2 related studies) of 95.3% imidacloprid in diet for 24 mo, study duration 24 mo, Dose: 0, 100, 330, 1000 ppm and 0, 2000 ppm (2 related studies) of 95.3% imidacloprid in diet for 24 mo, study duration 24 mo): inactive; negative | carcinogen call (Species: Mouse, Strain/Sex: B6C3F1/Male (60/Group), Route: Oral, Dose: 0, 100, 330, 1000 ppm and 0, 2000 ppm (2 related studies) of 95.3% imidacloprid in diet for 24 mo, study duration 24 mo, Dose: 0, 100, 330, 1000 ppm and 0, 2000 ppm (2 related studies) of 95.3% imidacloprid in diet for 24 mo, study duration 24 mo): inactive; negative | carcinogen call (Species: Rat, Strain/Sex: Wistar/Female (60/Group), Route: Oral, Dose: 0, 100, 300, 900 ppm and 0;1800 ppm (2 related studies) of 94.3% imidacloprid in diet for 24 mo, study duration 24 mo, Dose: 0, 100, 300, 900 ppm and 0;1800 ppm (2 related studies) of 94.3% imidacloprid in diet for 24 mo, study duration 24 mo): inactive; negative | carcinogen call (Species: Rat, Strain/Sex: Wistar/Male (60/Group), Route: Oral, Dose: 0, 100, 300, 900 ppm and 0, 1800 ppm (2 related studies) of 94.3% imidacloprid in diet for 24 mo, study duration 24 mo, Dose: 0, 100, 300, 900 ppm and 0, 1800 ppm (2 related studies) of 94.3% imidacloprid in diet for 24 mo, study duration 24 mo, Tumor Site: Type of Lesion: Liver: Cholangiocellular carcinoma (2/60 at 1800 ppm vs 0/60 all other groups)): active; positive

CC[C@H](C)[C@H]1O[C@]2(C=C[C@@H]1C)C[C@@H]1C[C@@H](C/C=C(\C)[C@@H](O[C@H]3C[C@H](OC)[C@@H](O[C@H]4C[C@H](OC)[C@@H](NC)[C@H](C)O4)[C@H](C)O3)[C@@H](C)/C=C/C=C3\CO[C@@H]4[C@H](O)C(C)=C[C@@H](C(=O)O1)[C@]34O)O2
carcinogen call (Species: Mouse, Strain/Sex: Strain not specified/Female (50/Group), Route: Oral, Dose: 0, 0.5, 2.5, 12.5 (lowered to 7.5 at wk 48) mg/kg/day in the diet for 79 wk, study duration 79 wk, Dose: 0, 0.5, 2.5, 12.5 (lowered to 7.5 at wk 48) mg/kg/day in the diet for 79 wk, study duration 79 wk): inactive; negative | carcinogen call (Species: Mouse, Strain/Sex: Strain not specified/Male (50/Group), Route: Oral, Dose: 0, 0.5, 2.5, 12.5 (lowered to 7.5 at wk 9 and to 5 at wk 31) mg/kg/day in the diet for 79 wk, study duration 79 wk, Dose: 0, 0.5, 2.5, 12.5 (lowered to 7.5 at wk 9 and to 5 at wk 31) mg/kg/day in the diet for 79 wk, study duration 79 wk): inactive; negative | carcinogen call (Species: Rat, Strain/Sex: Strain not specified/Female (65/Group), Route: Oral, Dose: 0, 0.25, 1, 5 (lowered to 2.5 at wk 10) mg/kg/day in the diet for 105 wk, study duration 105 wk, Dose: 0, 0.25, 1, 5 (lowered to 2.5 at wk 10) mg/kg/day in the diet for 105 wk, study duration 105 wk): inactive; negative | carcinogen call (Species: Rat, Strain/Sex: Strain not specified/Male (65/Group), Route: Oral, Dose: 0, 0.25, 1, 5 (lowered to 2.5 at wk 6) mg/kg/day in the diet for 105 wk, study duration 105 wk, Dose: 0, 0.25, 1, 5 (lowered to 2.5 at wk 6) mg/kg/day in the diet for 105 wk, study duration 105 wk): inactive; negative

CC(C)(C)c1cc(O)ccc1O
carcinogen call (Species: MOUSE, Strain/Sex: B6C3F1/FEMALE, Route: ORAL, Dose: 0, 1250, 2500, 5000 PPM IN DIET FOR 105 WK (STUDY DURATION: 105 WK), Dose: 0, 1250, 2500, 5000 PPM IN DIET FOR 105 WK (STUDY DURATION: 105 WK)): inactive; negative | carcinogen call (Species: MOUSE, Strain/Sex: B6C3F1/MALE, Route: ORAL, Dose: 0, 1250, 2500, 5000 PPM IN DIET FOR 104 WK (STUDY DURATION: 104 WK), Dose: 0, 1250, 2500, 5000 PPM IN DIET FOR 104 WK (STUDY DURATION: 104 WK)): inactive; negative | carcinogen call (Species: RAT, Strain/Sex: F344/FEMALE, Route: ORAL, Dose: 0, 1250, 2500, 5000 PPM IN DIET FOR 129 WK ADMINISTERED TO RATS ALSO EXPOSED IN UTERO THROUGH MOTHERS THAT RECEIVED THE, Dose: 0, 1250, 2500, 5000 PPM IN DIET FOR 129 WK ADMINISTERED TO RATS ALSO EXPOSED IN UTERO THROUGH MOTHERS THAT RECEIVED THE): inactive; negative | carcinogen call (Species: RAT, Strain/Sex: F344/FEMALE, Route: ORAL, Dose: 0, 5000 PPM IN DIET FOR 128 WK, CONTROL AND DOSED GROUPS FED AD LIBITUM (STUDY DURATION: 128 WK)): inactive; negative | carcinogen call (Species: RAT, Strain/Sex: F344/FEMALE, Route: ORAL, Dose: 0, 5000 PPM IN DIET FOR 128 WK, CONTROL GROUP WAS WEIGHT-MATCHED TO DOSED GROUP (STUDY DURATION: 128 WK)): inactive; negative | carcinogen call (Species: RAT, Strain/Sex: F344/FEMALE, Route: ORAL, Dose: 0, 5000 PPM IN DIET FOR 130 WK, CONTROL GROUP DIET RESTRICTED TO LIMIT WEIGHTS TO 85% OF AD LIBITUM-FED GROUPS (STUDY DU): inactive; negative | carcinogen call (Species: RAT, Strain/Sex: F344/MALE, Route: ORAL, Dose: 0, 1250, 2500, 5000 PPM IN DIET FOR 123 WK ADMINISTERED TO RATS ALSO EXPOSED IN UTERO THROUGH MOTHERS THAT RECEIVED THE, Dose: 0, 1250, 2500, 5000 PPM IN DIET FOR 123 WK ADMINISTERED TO RATS ALSO EXPOSED IN UTERO THROUGH MOTHERS THAT RECEIVED THE): inactive; negative | carcinogen call (Species: RAT, Strain/Sex: F344/MALE, Route: ORAL, Dose: 0, 5000 PPM IN DIET FOR 102 WK, CONTROL AND DOSED GROUPS FED AD LIBITUM (STUDY DURATION; 122 WK), Dose: 0, 5000 PPM IN DIET FOR 102 WK, CONTROL AND DOSED GROUPS FED AD LIBITUM (STUDY DURATION; 122 WK)): inactive; negative | carcinogen call (Species: RAT, Strain/Sex: F344/MALE, Route: ORAL, Dose: 0, 5000 PPM IN DIET FOR 122 WK, CONTROL GROUP WAS WEIGHT-MATCHED TO DOSED GROUP (STUDY DURATION: 122 WK)): inactive; negative | carcinogen call (Species: RAT, Strain/Sex: F344/MALE, Route: ORAL, Dose: 0, 5000 PPM IN DIET FOR 130 WK, CONTROL GROUP DIET RESTRICTED TO LIMIT WEIGHTS TO 85% OF AD LIBITUM-FED GROUPS (STUDY DU): inactive; negative

— PubChem BioAssay AID1259411 (Chemical Carcinogenesis Research Information System (CCRIS), 2018)
